The results in this text go back to patent publication US20240226285A9, “IMMUNOSTIMULATORY COMPOSITIONS” (Bayer Animal Health GmbH, priority 2020, published 2024).

The test system of one series is NF-κB pathway. Kind of series: NF-κB dependent pathway readout (SEAP, pNPP assay) in J774-Dual reporter cell line. The note with it: for activation of the NF-κB pathway (increase of SEAP levels in supernatant, normalized to protein content): FIG. 1, class C ODN, oligonucleotide-liposome complexes, 1.85 μg/mL oligonucleotide; for activation of the NF-κB pathway (increase of SEAP levels in supernatant, normalized to protein content) / activation of the NF-κB pathway (SEAP levels) compared to untreated J774-DUAL: J774-DUAL cells, 48 h. In kind it is cell-based, murine. As for the experimental part:
(§1) J774-DUAL™ cells (InvivoGen, murine NF-kB & IRF Reporter macrophage-like cells) were grown in Dulbecco's minimum essential medium (DMEM) with high D-glucose content, 1 mM sodium pyruvate and 4 mM stable glutamine. DMEM was supplemented with 10% FBS, 50 μg/mL streptomycin, 50 U/mL penicillin G and 100 μg/mL Normocin™. Every other week, the culture medium was additionally supplemented with 200 μg/mL Zeocin™ and 20 μg/mL Blasticidin.
(§2) For experimental series, serum free DMEM without phenol red was prepared containing 1 mM sodium pyruvate, 4 mM L-glutamine, 50 μg/mL streptomycin, 50 U/mL penicillin G, 100 μg/mL Normocin™, 200 μg/mL Zeocin™ and 20 μg/mL Blasticidin. J774-DUAL™ cell line was split once per week with a splitting ratio of 1:4.
J774-DUAL™ cells were cultivated in a Heracell™ 150 incubator (Thermo Scientific) at 37° C. with 5% C02 and 95% humidified air. For seeding, cells were counted using a Neubauer bright line hemocytometer (Marienfeld) with a volume 0.1 mm^3. Cell lines were regularly checked for absence of mycoplasmic contamination.
J774-Dual™ is a reporter cell line provided by Invivogen, which enables the simultaneous investigation of signal transduction resulting in the activation of the NF-κB and/or the IRF pathway.
J774-Dual™ cells express secreted embryonic alkaline phosphatase (SEAP) under the control of the NF-κB pathway. SEAP is secreted into the cell culture supernatant. Thus, a semi-quantitative analysis of NF-κB activation is possible (Invivogen product information (“J774-Dual Cells|NF-κB & IRF/IFN Reporter Macrophage” n.d., 774)). p-Nitrophenyl phosphate (pNPP) is a widely utilized chromogenic chemical for rapid determination of alkaline phosphatase activity. In the presence of alkaline phosphatase the substance is hydrolyzed into phosphate and the yellow para-Nitrophenol which can be measured spectrophotometrically (Bessey, Otto A., O. H. Lowky, and Mary Jane Brock. “A method for the rapid determination of alkaline phosphatase with five cubic millimeters of serum.” Journal of Biological Chemistry 164 (1946): 321-329.).
Cells were seeded with a density of 1×10^5 cells per well into 96-well microplates and given 24 h for adherence. The culture medium was removed and the cells were incubated with either naked CpG nucleic acids, liposomes or liposome-nucleic acid complexes in serum-free medium at 37° C. with 5% CO2 and 95% humidified air (Heracell™ 150, Thermo Scientific). Liposome with a LC20>40 μM were included in the experimental series. After 48 h of incubation 100 μL supernatant of each sample were transferred into 96-well microplates (SpectraPlate™-96 TC, Perkin Elmer) and analyzed spectrophotometrically using a p-Nitrophenyl phosphate assay.
To this end, 100 μL pNPP working reagent consisting of 20 mM pNPP in 50 mM NaHCO3 buffer (pH 9.6) were added to each well containing samples, controls or calibration standards. After the incubation of the mixture at 37° C. for 1 h, absorbance was determined using Victor3™ V multimode plate reader (Perkin Elmer) equipped with a 405 nm absorbance filter. Lipopolysaccharide from Salmonella anterica serotype Minnesota was applied as calibration standard to determine the linear range of the assay and as positive control. All experiments were conducted in triplicate.
Raw data was normalized to 10 μg/mL protein content and the average value of the untreated control was subtracted.

For another series, the system named is IRF pathway. Kind of series: Interferon regulatory factor (IRF) pathway readout (Lucia luciferase, QUANTI-Luc) in J774-Dual reporter cell line. In kind it is cell-based, murine. The conditions noted are these: ODN complexed with liposomes comprising DOTAP+DOPE, DOTMA+DOPE or DDA+DOPE; 40 μM liposomal lipids, 1.85 μg/mL ODN; J774-DUAL cells, 48 h. As for the experimental part: as §1, §2
J774-DUAL™ cells were cultivated in a Heracell™ 150 incubator (Thermo Scientific) at 37° C. with 5% C02 and 95% humidified air. For seeding, cells were counted using a Neubauer bright line hemocytometer (Marienfeld) with a volume 0.1 mm^3. Cell lines were regularly checked for absence of mycoplasmic contamination. […]
J774-Dual™ cells also express the Lucia luciferase gene under the control of the IRF pathway. […] By using QUANTI-Luc™ reagent, a semi-quantitative analysis of IRF activation is thus possible (Invivogen product information (“J774-Dual Cells|NF-κB & IRF/IFN Reporter Macrophage” n.d., 774).
Cells were seeded with a density of 1×10^5 cells per well into 96-well microplates and given 24 h for adherence. […] After 48 h of incubations, 50 μL supernatant of each sample were transferred into 96-well microplates (OptiPlate™-96 HS, Perkin Elmer) and analyzed using QUANTI-Luc™ luminescence assay according to the manufacturer's instructions.
QUANTI-Luc™ reagent was dissolved in 25 mL endotoxin-free water, and 50 μL were added to each well containing samples, controls or calibration standards. Luminescence was immediately determined using EnSpire® multimode plate reader (Perkin Elmer) and measured as relative light units (RLU). […]

Regarding “ODN M362: class C immunostimulatory CpG oligonucleotide, SEQ ID NO. 2 (TCGTCGTCGTTCGAACGACGTTGAT; listed as DNA, chemistry not given here)”, the “activation of the NF-κB pathway (increase of SEAP levels in supernatant, normalized to protein content)” value in the series on NF-κB pathway (40 μM liposomal lipids) is listed as “potent NF-κB pathway activation was not observed”. Further, the “activation of the IRF pathway (increase of luciferase levels in supernatant, normalized to protein content)” value in the series on IRF pathway is reported as “potent IRF pathway activation was observed”.
For “ODN 2395: class C immunostimulatory CpG oligonucleotide, SEQ ID NO. 1 (TCGTCGTTTTCGGCGCGCGCCG; listed as DNA, chemistry not given here)”, in that order: “potent NF-κB pathway activation was not observed” and “potent IRF pathway activation was observed”.
Consider “ODN 1668: class B immunostimulatory CpG oligonucleotide, SEQ ID NO. 3 (DNA TCCATGACGTTCCTGATGCT; listed as DNA, chemistry not given here)”, for which the “activation of the NF-κB pathway (SEAP levels) compared to untreated J774-DUAL” value is listed as “increased NF-κB pathway activation” with NF-κB pathway (FIG. 3, ODN complexed with liposomes, 40 μM liposomal lipids, 1.85 μg/mL ODN) and “increased NF-κB pathway activation” in the series with NF-κB pathway (FIG. 3, uncomplexed (naked) ODN 1.85 μg/mL). In the series with NF-κB pathway (FIG. 3, all liposome complexes except those with liposomes comprising DOTMA+DOPE, 40 μM lipids, 1.85 μg/mL ODN), the “immunostimulatory potency (NF-κB pathway) of complexes compared to the uncomplexed ODN” value was “not significantly improved”. For the same substance, the “activation of the IRF pathway (increase of luciferase levels in supernatant, normalized to protein content)” value in the series with IRF pathway is given as “potent IRF pathway activation was observed”.
